System: INS1E cells
Type: cell-based, rat

SMILES	digitonin concentration giving maximal and sustained ADP-stimulated respiration [%]	portion of ADP stimulated respiration that is oligomycin sensitive [%]
C[C@@H]1CC[C@@]2(OC1)O[C@H]1[C@@H](O)[C@H]3[C@@H]4CC[C@H]5C[C@@H](O[C@@H]6O[C@H](CO)[C@H](O[C@@H]7O[C@H](CO)[C@@H](O)[C@H](O[C@@H]8OC[C@@H](O)[C@H](O)[C@H]8O)[C@H]7O[C@@H]7O[C@H](CO)[C@H](O)[C@H](O[C@@H]8O[C@H](CO)[C@@H](O)[C@H](O)[C@H]8O)[C@H]7O)[C@H](O)[C@H]6O)[C@H](O)C[C@]5(C)[C@H]4CC[C@]3(C)[C@H]1[C@@H]2C [digitonin]	0.01	–
CC[C@H]1/C=C/C=C/C[C@@H](C)[C@H](O)[C@@](C)(O)C(=O)[C@@H](C)[C@H](O)[C@@H](C)C(=O)[C@@H](C)[C@H](O)[C@@H](C)/C=C/C(=O)O[C@@H]2[C@H](C)[C@H](CC1)O[C@]1(CC[C@H](C)[C@H](C[C@@H](C)O)O1)[C@H]2C [oligomycin]	–	~75

Source: patent US9915647B2 (priority 2011, dated 2018)
